Experimental data taken from publication PMC8512555, “Patient-Derived Tumor Chemosensitization of GKB202, an Antrodia Cinnamomea Mycelium-Derived Bioactive Compound” (Molecules, 2021).

Legend:
Format in all cases: cell-based, human
[1] = system: colorectal cancer (CRC) patient-derived circulating tumor cells; test: Ex vivo viability assay (CellTiter-Glo) on patient-derived CTC spheroids, colorectal cancer; details: 6 days; for anti-CTC effect compared with the 5-FU group: 4 and 20 µg/mL; for relative survival rate: vs untreated control cells
Method: (§1) Patients who were diagnosed with oral cancer (OC), hepatocellular carcinoma (HCC) and colorectal cancer (CRC) with stage III or IV were recruited and provided written informed consent to participate in this study. For patients enrolled, clinical profiles including initial cancer staging, medication information, and treatment responses were recorded. Peripheral blood (7.5 mL) was collected in vacated ethylenediaminetetraacetic acid (EDTA) tubes and peripheral blood mononuclear cells (PBMCs) were isolated by gradient gravity centrifugation using Ficoll-Paque. Blood was added to a LeucoSep tube filling with 15 mL of Ficoll-Paque Plus in the bottom of the frit and centrifuged to obtain the PBMC fraction. Then PBMC was resuspended in phosphate-buffered saline (PBS) containing 1% BSA, 2 mM EDTA where CTC was enriched by RosetteSep® CTC Enrichment Cocktail kit. Briefly, the PBMC pellet is incubated with antibodies at room temperature, followed by the addition of PBS containing 2% FBS to the diluted sample. The diluted sample was added on the top of Ficoll-Paque for another centrifugation, then enriched cells were obtained and suspended in DMEM/F12 medium containing EGF, bFGF, and B27 supplement. Cells were seeded onto a substrate of binary colloidal crystals (BCCs). The structure of BCCs has been reported for its ability to enhance the expansion of rare cancer cells. The medium was replaced in each well every four days. Tumor-derived CTC spheroids were checked by optical microscopy.
(§2) To test the anti-tumor activity of natural compounds, CTC spheroids were allowed to grow for four weeks then spheroids were collected to seed into other BCC plates and incubated for 16 h. Two chemotherapy drugs used as the positive control including 5-FU (30 µM), Cisplatin (14.4 µM), GKA201, GKB202 and GKC203 (4 µg/mL and 20 µg/mL) were added to cells and incubated for six days. Cell viability was determined by a CellTiter-Glo® Luminescent Cell Viability Assay (Promega Corporation, Madison, WI, US) where cells were incubated with a Cell-Titer Glo reagent for 10 min and the luminescence was read on a GloMax® Navigator Microplate Luminometer (Promega Corporation, Madison, WI, US). The relative cell viability was calculated as the percentage of cells treated with drugs or natural compounds compared with untreated control cells.

[2] = system: hepatocellular carcinoma (HCC) patient-derived circulating tumor cells; test: Ex vivo viability assay (CellTiter-Glo) on patient-derived CTC spheroids, hepatocellular carcinoma; details: 6 days; for anti-CTC effect compared with the 5-FU group: 4 and 20 µg/mL; for relative survival rate: vs untreated control cells
Method: as §1, §2

[3] = system: oral cancer (OC) patient-derived circulating tumor cells; test: Ex vivo viability assay (CellTiter-Glo) on patient-derived CTC spheroids, oral cancer; details: for anti-CTC effect compared with the 5-FU group: 4 and 20 µg/mL; for anti-CTC effect compared with the 5-FU group / relative survival rate: 6 days; for relative survival rate: vs untreated control cells; for drug sensitivity of OC patient organoids: Cisplatin and Carboplatin at the same concentration, Figure S3
Method: as §1, §2

Structure (SMILES) | anti-CTC effect compared with the 5-FU group [1] | anti-CTC effect compared with the 5-FU group [2] | anti-CTC effect compared with the 5-FU group [3] | drug sensitivity of OC patient organoids [3] | other results
CC(C)=CCOc1ccc(C2=C(CC(C)C)C(=O)N(O)C2=O)cc1 [GKC203] | no significance | no significance | no significance | – | –
CC(C)=CCOc1ccc(C2=C(CC(C)C)C(=O)OC2=O)cc1 [GKA201] | no significance | no significance | no significance | – | –
N.N.[Cl][Pt][Cl] [Cisplatin] | – | – | – | sensitive | relative survival rate ([1]; Cisplatin 14.4 µM): 49 ± 10%; relative survival rate ([2]; Cisplatin 14.4 µM): 28 ± 5.8%; relative survival rate ([3]; Cisplatin 14.4 µM): 21 ± 0.3%
O=c1[nH]cc(F)c(=O)[nH]1 [5-FU] | – | – | – | – | relative survival rate ([1]; 5-FU 30 µM): 49 ± 13%; relative survival rate ([2]; 5-FU 30 µM): 43 ± 2%; relative survival rate ([3]; 5-FU 30 µM): 51 ± 13%
N.N.O=C([O-])C1(C(=O)[O-])CCC1.[Pt+2] [Carboplatin] | – | – | – | resistant | –
